In experiment [1] the test system is isolation induced aggressive behaviour. As to the kind of experiment: Isolation induced aggressive behaviour test (inhibition of aggression). The experiment is classed as in vivo, Male albino mice. Conditions: Mus musculus, sc, 1 h, read-out: ED50, Inhibition aggression test. The protocol:
Male albino mice were used. Tests were conducted 60 minutes after subcutaneous drug administration.
(§1) The ED50 -values expressed in milligrams per kilogram body weight in the anti-amphetamine test, in the anti-apomorphine test and in the inhibition of aggression test are presented in Table I.

In experiment [2] the test system is amphetamine induced behavioural stereotypies. Kind of experiment: Anti-amphetamine test: inhibition of compulsory gnawing and chewing responses to amphetamine. The format is in vivo, Sprague Dawley female rats. The following applies: Rattus norvegicus, sc, read-out: ED50, Anti-amphetamine test. The protocol: Conventional types of neuroleptics are potent inhibitors of amphetamine induced behavioural stereotypies. One determines in Sprague Dawley female rats the ability of subcutaneously administered compounds to inhibit compulsory gnawing and chewing responses to a subcutaneous dose of 10 mg/kg of amphetamine administered half an hour after the compound to be tested. The new compounds of formula I are weak antagonists in this test.
as §1

The subject of experiment [3] is histamine induced contraction of guinea pig ileum. As to the kind of experiment: Antihistaminic activity: histamine induced contraction of guinea pig ileum. The following applies: histamine 0.2 μg/ml, 50% inhibition of the contraction.
Experiment [4] has as its system apomorphine induced emesis. Kind of experiment: Anti-apomorphine test: antagonism of apomorphine induced emesis. The format is in vivo, dogs. Conditions: Canis lupus familiaris, sc, read-out: ED50, Anti-apomorphine test. The protocol:
All typical chloropromazine-like neuroleptics are powerful antagonists of apomorphine induced emesis in dogs by virtue of their blocking action on the chemo-emetic trigger zone. The compounds listed in Table I were administered subcutaneously. The animals were challenged half an hour after subcutaneous administration with a standard dose of 0.06 mg/kg of apomorphine hydrochloride (subcutaneously). […] The ED50 -values expressed in milligrams per kilogram body weight in the anti-amphetamine test, in the anti-apomorphine test and in the inhibition of aggression test are presented in Table I.

For experiment [5], the system named is serotonin induced contraction of the rat ileum. Kind of experiment: Antiserotoninergic activity: serotonin induced contraction of the rat ileum. The following applies: serotonin 220 ng/ml, 50% inhibition of the contraction.
Experimental: They show antiserotoninergic activity evaluated from the effects on serotonin (220 ng/ml) induced contraction of the rat ileum.
The subject of experiment [6] is acetylcholine induced contraction of guinea pig ileum. As to the kind of experiment: Anticholinergic activity: acetylcholine induced contraction of guinea pig ileum. Conditions: acetylcholine 0.02 μg/ml, 50% inhibition of the contraction.
The mark [7] stands for this setting: male albino mice, 60 minutes after subcutaneous administration.

This note sets out measurements from patent publication US4366162A, “Aryl ethers of N-alkyl-piperidines and acid addition salts thereof” (AB Ferrosan, priority 1977, dated 1982).

In brackets after ≈: the same amount, converted by molar mass. Like-named read-outs stand apart in the source and are kept apart here.

In general, ED50 refers to the dose that gives a 50% effect, or the effect in half of the subjects.

With `O=C(CCCN1CCC(O)(c2ccc(Cl)cc2)CC1)c1ccc(F)cc1` [Haloperidol, haloperidol], the results for the ED50 in experiment [1] and in experiment [2] were 0.8 mg/kg and 0.03 mg/kg, respectively.
In the case of `CCC(=O)OC1(C(=O)c2ccc(F)cc2)CCN(CCCOc2ccc(C(C)=O)cc2OC)CC1` [III], the ED50 in experiment [1] (setting [7]) turned out to be 2 mg/kg.
Turning to `CN(C)CCCN1c2ccccc2Sc2ccc(Cl)cc21` [Chlorpromazine, chlorpromazine], the “ED50, Antihistaminic activity” value in experiment [3] is 0,03 μg/ml. The values for the ED50 in experiment [4], in experiment [1] and in experiment [2] were 0.7 mg/kg, 0.4 mg/kg and 1.2 mg/kg, respectively. The “ED50, Antiseroto-ninergic activity” value in experiment [5] worked out at 6 µg/mL (≈ 18.8 µM). Besides, in experiment [6], the “ED50, Anticholinergic activity” value is on record as 1,7 μg/ml.
As for `COc1cc(C(C)=O)ccc1OCCCCN1CCC(O)(C(=O)c2ccc(F)cc2)CC1` [II], the ED50 in experiment [1] (setting [7]) stood at 1.5 mg/kg.
For the compound `COc1cc(C(C)=O)ccc1OCCCN1CCC(O)(C(=O)c2ccc(F)cc2)CC1` [I, 1-[3-(p-acetyl-o-methoxyphenoxy)-propyl]-4-(p-fluorobenzoyl)-4-hydroxypiperidine], in experiment [3], the “ED50, Antihistaminic activity” value is given as 0,06 μg/ml. Besides, the ED50 in experiment [4] (dogs, subcutaneous, half an hour before 0.06 mg/kg apomorphine hydrochloride s.c.) amounted to 7.1 mg/kg; in experiment [1] (setting [7]), 0.5 mg/kg; in experiment [2] (rats, subcutaneous, half an hour before 10 mg/kg amphetamine s.c.), 20 mg/kg. Also, the “ED50, Antiseroto-ninergic activity” value in experiment [5] is recorded as 0,1 μg/ml. Also, in experiment [6], the “ED50, Anticholinergic activity” value is more than 100 µg/mL.
